This data set is described as follows: Phase I open-label, parallel-group, single oral dose pharmacokinetic study of dorzagliatin in ESRD and healthy subjects. Format: in vivo, human. As to conditions: single 25 mg oral dose; for AUC(0-inf) / AUC(0-t) / Cmax: human, po, 25 mg; for Cmax: read-out: Cmax, LS mean. The source says: This phase I study was to access the pharmacokinetics and safety of a single dose of dorzagliatin in renally impaired and heathy subjects. The study was divided into two phases: Phase 1 having two groups (P1 and H) and Phase 2 having three groups (P2, P3, and P4). Phase 2 would start after the completion of Phase 1 and determining an increase of ≥100% in the average AUC (AUClast or AUCinf) of the ESRD subjects than that of the healthy subjects in Phase 1. The ESRD subjects of Group P1 were matched closely with the healthy subjects as to their sexes, ages (±5 yrs), and BMIs (±15%).
In Phase 1, eligible subjects were admitted to a clinical research center (CRC) on Day −2 or −1. On Day −1, the subjects had no additional food after a standard dinner for at least 10 h. In the morning of Day 1, the subjects received dorzagliatin (25 mg) orally with empty stomach. […] Blood samples were collected at the following time points: within 60 min pre-dose; and at 0.25, 0.5, 1, 1.5, 2, 2.5, 3, 4, 6, 8, 12, 24, 36, 48, and 72 h post-dose. Urine samples for the pharmacokinetic (PK) analysis were collected at the following time points: within 60 min pre-dose; and at 0˜4, 4˜8, 8˜12, 12˜24, 24˜36, 36˜48, and 48˜72 h post-dose. The samples were analyzed using LC-MS/MS. The plasma concentration-time data for dorzagliatin were analyzed using a non-compartmental model to obtain PK parameters, including Cmax, AUClast, AUCinf, Cmax,u, AUClast,u, and AUCinf,u. An ANOVA analysis was performed on the data between H and P1 groups.

From patent US11857536B2, “Glucokinase activator for treating diabetes with renal impairment” (HUA Medicine (Shanghai) Ltd., priority 2020, dated 2024) come the findings set out here.

Where two headings read alike, the source gives them in different places.

Take `CC(C)C[C@@H](C(=O)Nc1ccn(C[C@@H](O)CO)n1)N1CC(Oc2ccccc2Cl)=CC1=O` [dorzagliatin, (S)-2-(4-(2-chlorophenoxy)-2-oxo-2,5-dihydro-1H-pyrrol-1-yl)-N-(1-((R)-2,3-dihydroxypropyl)-1H-pyrazol-3-yl)-4-methylpentanamide]: the “AUCinf in ESRD subjects (Group P1) compared to healthy subjects (Group H), in words” value is “substantially the same” and the “Cmax in ESRD subjects (Group P1) compared to healthy subjects (Group H), in words” value was “slightly decreased”. Further, where the note is “Group H (healthy), fasted”, the “Cmax, u, LS mean” value is given as 29.5 ng/mL. Also, the “AUClast, LS mean” value (Group H (healthy), fasted, plasma) was determined as 1857 ng·h/mL. The “Cmax, u, LS mean” value (Group P1 (ESRD), fasted) was found to be 27.5 ng/mL. Also, the AUC(0-inf) (plasma, Group H (healthy), fasted, plasma, read-out: AUCinf, LS mean) was found to be 1890 ng·h/mL. For the same compound, the AUC(0-inf) (plasma, Group H (healthy), fasted, read-out: AUCinf, u, LS mean) was 126 ng·h/mL. Further, under “plasma, Group H (healthy), fasted, read-out: AUClast, u, LS mean”, the AUC(0-t) came out at 124 ng·h/mL. Besides, where the note is “plasma, Group H (healthy, eGFR ≥90), fasted, plasma”, the Cmax (as a rule, the highest concentration seen after dosing) was found to be 442 ng/mL. Further, under “plasma, Group P1 (ESRD), fasted, plasma, read-out: AUCinf, LS mean”, the AUC(0-inf) stood at 2070 ng·h/mL. In addition, the AUC(0-t) (plasma, Group P1 (ESRD), fasted, plasma, read-out: AUClast, LS mean) turned out to be 2060 ng·h/mL. Moreover, under “plasma, Group P1 (ESRD), fasted, read-out: AUCinf, u, LS mean”, the AUC(0-inf) was found to be 163 ng·h/mL. The AUC(0-t) (plasma, Group P1 (ESRD), fasted, read-out: AUClast, u, LS mean) worked out at 162 ng·h/mL. For the same compound, the Cmax (plasma, Group P1 (ESRD, eGFR <15, no dialysis), fasted, plasma) is 356 ng/mL. Further, the “Cmax, u GMR (P1/H)” value (ratio ESRD/healthy) turned out to be 0.93. Moreover, under “ANOVA, preset criterion AUC increase >100% not met”, the “Difference in AUC between Groups H and P1, in words” value is given as “no significant difference”.
